18 compounds from patent US9416115B2, “Fused heterocyclic compounds as ion channel modulators” (Gilead Sciences, Inc., priority 2013, dated 2016) can be followed below.

In experiment [1] the target is T1, hNaV1.2 (SCN2A) (Homo sapiens, UniProt Q99250).
T1 construct: expressed in transfected cells
The experiment is described as follows: Use-dependent inhibition of the CNS Nav1.2 sodium channel. The class given is cell-based. To be noted: use-dependent block, 25 Hz, pulse 20, read-out: Nav1.2 UDB 25 Hz 10 uM. The protocol:
HEK-293 cells stably expressing wild-type (WT) hNaV1.2 (SCN2A NCBI # NM_021007.2, SCN1B NCBI # NM_001037.4, SCN2B NCBI # NM_004588.2) were used to record INa. Cells are maintained with standard tissue culture procedures and stable channel expression is maintained with 800 ug/mL G418 and 3 ug/mL Puromycin in the culture medium. Unless otherwise noted, all reagents are purchased from Sigma-Aldrich (St Louis, Mo., U.S.A.).
Assays measuring Use-Dependent Block (UDB) of Nav1.2 are performed on an automated electrophysiology platform, QPatch 16X or QPatch HT (Sophion Bioscience, Copenhagen, Denmark), using the whole cell patch clamp technique to measure currents through the cell membrane. Series resistance compensation is set to 100% and series resistance and whole-cell compensation are performed automatically. Currents stored in the Sophion Bioscience Oracle database (Sophion Bioscience, Copenhagen, Denmark). Analysis is performed using QPatch Assay software and data are compiled in Excel 2010 (Microsoft, Seattle, Wash., U.S.A.).
The internal (pipette) solution consists of (in mM) 105 CsF, 10 NaF, 20 CsCl, 2 EGTA, 10 HEPES, 10 Dextrose with a pH of 7.35 and osmolarity of 300 mOsmol/kg. The external (bath) solution contains in (mM): 145 NaCl, 4 KCl, 1.8 CaCl2, 1 MgCl2, 10 dextrose, 10 HEPES, with a pH of 7.35 and osmolarity of 310 mOsmol/kg. Experiments are carried out at 23-25° C.
Compound stocks are routinely made by the Gilead Sample Bank in vials to 10 mM in dimethyl sulfoxide (DMSO). In some cases, when compounds are not soluble in DMSO, they are made in 100% ethanol. Stocks are sonicated as necessary. […]
Cells are allowed to stabilize for 10 min after establishment of the whole-cell configuration before current is measured. The test compound is applied 2 times at 60 second intervals. After the second compound addition, a 200 second wait period was imposed to allow for equilibration. Leak currents are subtracted by using an online P/4 procedure and all currents are low-pass Bessel filtered at 5 kHz and digitized at […].
Results are presented as mean percentage inhibition.
Use-dependent block of Nav1.2 peak current is measured during pulse number 20 of a voltage pulse train (0 mV, 20 ms, 20 pulses, 25 Hz) from a holding potential of −120 mV.
Currents are normalized to the peak current recorded in response to the first pulse in each frequency train. The voltage protocol for UDB was performed in the absence and presence of compound and percentage inhibition was calculated with respect to the compound free condition.

Experiment [2] concerns the target wild-type human cardiac sodium channel, hNav1.5 (Homo sapiens, UniProt Q14524). Kind of experiment: Late INa screening assay (QPatch whole cell patch clamp, Tefluthrin-induced late current). The class given is cell-based. To be noted: HEK293 hNav1.5, percent block of late INa. The protocol: The cardiac late sodium current (Late INa) and peak sodium current (Peak INa) assays are performed on an automated electrophysiology platform, QPatch 16X or QPatch HT (Sophion Bioscience, Copenhagen, Denmark) using the whole cell patch clamp technique to measure currents through the cell membrane. The assay uses an HEK293 (human embryonic kidney) cell line heterologously expressing the wild-type human cardiac sodium channel, hNav1.5, purchased from Millipore (Billerica, Mass.). No beta subunits were coexpressed with the Na channel alpha subunit. Cells are maintained with standard tissue culture procedures and stable channel expression is maintained with 400 μg/mL Geneticin in the culture medium. Experiments are carried out at 23-25° C.
For both the Late INa and Peak INa assays, series resistance compensation is set to 100% and series resistance and whole-cell compensation are performed automatically. Currents are digitized at 25 kHz and low-pass filtered at 5 kHz and stored in the Sophion Bioscience Oracle database (Sophion Bioscience, Copenhagen, Denmark). Analysis is performed using QPatch Assay software and data are compiled in Excel 2010 (Microsoft, Seattle, Wash., U.S.A.).
Compound stocks are routinely made by the Gilead Sample Bank in vials to 10 mM in dimethyl sulfoxide (DMSO). In some cases, when compounds are not soluble in DMSO, they are made in 100% ethanol. Stocks are sonicated as necessary. The extracellular solution for screening Late INa is composed of: 140 mM NaCl, 4 mM KCl, 1.8 mM CaCl2, 1 mM MgCl2, 10 mM HEPES and 10 mM Dextrose with pH adjusted to 7.35 using NaOH. The intracellular solution contains: 105 mM CsF, 20 mM CsCl, 10NaF, 2 mM EGTA, 10 mM HEPES and 10 mM Dextrose with pH adjusted to 7.35 with CsOH. Compounds are diluted in extracellular solution using a MicroLab Nimbus (Hamilton Robotics, Reno, Nev.) to between 0.3 and 3 μM in glass vials and transferred to glass well plates before robotic addition to the cells. The 0 mM Na extracellular solution (0Na-ECF) used at the end of each experiment for the Late INa and Peak INa assays to measure baseline current contains: 140 Choline-Cl; 4 mM KCl, 1.8 mM CaCl2; 1 mM MgCl2; 10 mM HEPES and 10 mM Dextrose with pH was adjusted to 7.35 with CsOH.
For the Late INa assay, sodium channels are activated every 10 seconds (0.1 Hz) by depolarizing the cell membrane to −20 mV for 250 milliseconds (ms) from a holding potential of −120 mV.
Compounds were tested to determine their activity in blocking the late sodium current. Late INa was generated by adding 10 μM Tefluthrin (pyrethroid) to the extracellular solution. For the purposes of the screening, Late INa is defined as the mean current between […] during the voltage step to −20 mV. After establishing the whole cell recording configuration, Late INa activator is added to each well 4 times over a 15 minute period so that the late component of the Na current reaches a stable value. Compounds were then added (typically at 0.3 or 1 μM), in the presence of the Late Na^+ activator, with 3 additions over the course of 5 minutes. Measurements were made at the end of exposure to the third compound addition and values were normalized to the current level when all Na^+ was removed from the extracellular solution after two additions of 0Na-ECF.
Results are reported as percent block of late INa and results were analyzed by incorporating rundown correction for the Late INa.

Molecules are shown by their SMILES. Bounds are passed on as bounds.

T1 sequence (Q99250 whole entry): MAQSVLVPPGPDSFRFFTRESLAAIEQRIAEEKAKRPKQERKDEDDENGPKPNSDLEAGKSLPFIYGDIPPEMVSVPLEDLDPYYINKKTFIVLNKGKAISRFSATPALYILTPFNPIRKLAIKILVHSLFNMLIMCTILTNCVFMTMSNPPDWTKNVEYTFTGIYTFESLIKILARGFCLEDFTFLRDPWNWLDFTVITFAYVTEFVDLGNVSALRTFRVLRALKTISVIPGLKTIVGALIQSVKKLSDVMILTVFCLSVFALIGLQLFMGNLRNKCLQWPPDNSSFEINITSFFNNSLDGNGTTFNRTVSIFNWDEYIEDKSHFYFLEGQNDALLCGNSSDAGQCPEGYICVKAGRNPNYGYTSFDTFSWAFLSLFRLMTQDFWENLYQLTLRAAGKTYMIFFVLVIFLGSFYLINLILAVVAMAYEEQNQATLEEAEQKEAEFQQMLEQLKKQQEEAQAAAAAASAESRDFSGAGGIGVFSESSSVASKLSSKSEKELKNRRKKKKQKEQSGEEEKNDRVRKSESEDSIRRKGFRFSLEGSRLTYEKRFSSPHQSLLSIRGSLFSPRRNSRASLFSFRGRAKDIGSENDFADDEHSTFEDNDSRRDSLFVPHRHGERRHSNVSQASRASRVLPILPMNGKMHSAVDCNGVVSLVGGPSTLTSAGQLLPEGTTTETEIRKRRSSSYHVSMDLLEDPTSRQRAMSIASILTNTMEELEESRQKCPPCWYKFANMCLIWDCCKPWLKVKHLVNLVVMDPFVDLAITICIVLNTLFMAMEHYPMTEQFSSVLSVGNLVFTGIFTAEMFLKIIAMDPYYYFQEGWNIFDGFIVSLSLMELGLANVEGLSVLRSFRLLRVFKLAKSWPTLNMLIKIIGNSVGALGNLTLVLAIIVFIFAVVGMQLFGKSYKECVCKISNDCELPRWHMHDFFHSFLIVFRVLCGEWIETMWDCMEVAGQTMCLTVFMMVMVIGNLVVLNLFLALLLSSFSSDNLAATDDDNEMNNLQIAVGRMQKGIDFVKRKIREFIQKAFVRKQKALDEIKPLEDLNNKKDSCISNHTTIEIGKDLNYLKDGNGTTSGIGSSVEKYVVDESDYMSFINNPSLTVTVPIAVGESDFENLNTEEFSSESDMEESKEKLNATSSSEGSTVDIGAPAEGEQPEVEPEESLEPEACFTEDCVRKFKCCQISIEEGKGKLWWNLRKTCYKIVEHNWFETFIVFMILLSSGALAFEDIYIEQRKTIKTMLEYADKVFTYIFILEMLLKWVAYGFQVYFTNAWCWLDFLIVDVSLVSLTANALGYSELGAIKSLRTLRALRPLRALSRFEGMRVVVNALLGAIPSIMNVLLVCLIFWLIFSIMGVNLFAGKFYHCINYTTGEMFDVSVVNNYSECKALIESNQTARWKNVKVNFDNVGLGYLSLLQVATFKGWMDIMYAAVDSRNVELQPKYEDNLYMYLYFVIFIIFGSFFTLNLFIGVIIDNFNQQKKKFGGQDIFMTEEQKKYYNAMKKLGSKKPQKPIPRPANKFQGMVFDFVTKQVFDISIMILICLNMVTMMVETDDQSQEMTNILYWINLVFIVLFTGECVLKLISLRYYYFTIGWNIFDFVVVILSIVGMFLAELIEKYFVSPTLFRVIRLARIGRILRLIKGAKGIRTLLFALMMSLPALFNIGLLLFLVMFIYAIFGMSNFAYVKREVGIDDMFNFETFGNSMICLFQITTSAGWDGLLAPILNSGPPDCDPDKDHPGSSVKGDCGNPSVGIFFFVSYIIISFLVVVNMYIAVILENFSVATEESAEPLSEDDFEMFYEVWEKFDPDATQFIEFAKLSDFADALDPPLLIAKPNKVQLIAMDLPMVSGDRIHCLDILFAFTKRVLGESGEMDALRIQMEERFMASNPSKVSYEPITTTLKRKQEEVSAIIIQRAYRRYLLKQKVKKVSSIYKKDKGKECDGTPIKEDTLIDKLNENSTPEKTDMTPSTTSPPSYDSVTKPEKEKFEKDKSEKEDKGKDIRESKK
T1 sequence (Q07699 19-218 partner): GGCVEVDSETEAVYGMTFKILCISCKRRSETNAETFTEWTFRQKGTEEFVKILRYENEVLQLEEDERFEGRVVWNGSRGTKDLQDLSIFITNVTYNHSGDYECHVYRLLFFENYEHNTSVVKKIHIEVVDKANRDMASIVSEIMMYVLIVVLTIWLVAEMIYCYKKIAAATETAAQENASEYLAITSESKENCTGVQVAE
T1 sequence (O60939 30-215 partner): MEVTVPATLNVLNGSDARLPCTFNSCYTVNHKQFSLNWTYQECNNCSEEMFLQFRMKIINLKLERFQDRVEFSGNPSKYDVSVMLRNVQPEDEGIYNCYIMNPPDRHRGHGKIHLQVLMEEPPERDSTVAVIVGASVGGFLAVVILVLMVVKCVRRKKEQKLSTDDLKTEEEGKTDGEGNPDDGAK
wild-type human cardiac sodium channel, hNav1.5, sequence (Q14524 whole entry): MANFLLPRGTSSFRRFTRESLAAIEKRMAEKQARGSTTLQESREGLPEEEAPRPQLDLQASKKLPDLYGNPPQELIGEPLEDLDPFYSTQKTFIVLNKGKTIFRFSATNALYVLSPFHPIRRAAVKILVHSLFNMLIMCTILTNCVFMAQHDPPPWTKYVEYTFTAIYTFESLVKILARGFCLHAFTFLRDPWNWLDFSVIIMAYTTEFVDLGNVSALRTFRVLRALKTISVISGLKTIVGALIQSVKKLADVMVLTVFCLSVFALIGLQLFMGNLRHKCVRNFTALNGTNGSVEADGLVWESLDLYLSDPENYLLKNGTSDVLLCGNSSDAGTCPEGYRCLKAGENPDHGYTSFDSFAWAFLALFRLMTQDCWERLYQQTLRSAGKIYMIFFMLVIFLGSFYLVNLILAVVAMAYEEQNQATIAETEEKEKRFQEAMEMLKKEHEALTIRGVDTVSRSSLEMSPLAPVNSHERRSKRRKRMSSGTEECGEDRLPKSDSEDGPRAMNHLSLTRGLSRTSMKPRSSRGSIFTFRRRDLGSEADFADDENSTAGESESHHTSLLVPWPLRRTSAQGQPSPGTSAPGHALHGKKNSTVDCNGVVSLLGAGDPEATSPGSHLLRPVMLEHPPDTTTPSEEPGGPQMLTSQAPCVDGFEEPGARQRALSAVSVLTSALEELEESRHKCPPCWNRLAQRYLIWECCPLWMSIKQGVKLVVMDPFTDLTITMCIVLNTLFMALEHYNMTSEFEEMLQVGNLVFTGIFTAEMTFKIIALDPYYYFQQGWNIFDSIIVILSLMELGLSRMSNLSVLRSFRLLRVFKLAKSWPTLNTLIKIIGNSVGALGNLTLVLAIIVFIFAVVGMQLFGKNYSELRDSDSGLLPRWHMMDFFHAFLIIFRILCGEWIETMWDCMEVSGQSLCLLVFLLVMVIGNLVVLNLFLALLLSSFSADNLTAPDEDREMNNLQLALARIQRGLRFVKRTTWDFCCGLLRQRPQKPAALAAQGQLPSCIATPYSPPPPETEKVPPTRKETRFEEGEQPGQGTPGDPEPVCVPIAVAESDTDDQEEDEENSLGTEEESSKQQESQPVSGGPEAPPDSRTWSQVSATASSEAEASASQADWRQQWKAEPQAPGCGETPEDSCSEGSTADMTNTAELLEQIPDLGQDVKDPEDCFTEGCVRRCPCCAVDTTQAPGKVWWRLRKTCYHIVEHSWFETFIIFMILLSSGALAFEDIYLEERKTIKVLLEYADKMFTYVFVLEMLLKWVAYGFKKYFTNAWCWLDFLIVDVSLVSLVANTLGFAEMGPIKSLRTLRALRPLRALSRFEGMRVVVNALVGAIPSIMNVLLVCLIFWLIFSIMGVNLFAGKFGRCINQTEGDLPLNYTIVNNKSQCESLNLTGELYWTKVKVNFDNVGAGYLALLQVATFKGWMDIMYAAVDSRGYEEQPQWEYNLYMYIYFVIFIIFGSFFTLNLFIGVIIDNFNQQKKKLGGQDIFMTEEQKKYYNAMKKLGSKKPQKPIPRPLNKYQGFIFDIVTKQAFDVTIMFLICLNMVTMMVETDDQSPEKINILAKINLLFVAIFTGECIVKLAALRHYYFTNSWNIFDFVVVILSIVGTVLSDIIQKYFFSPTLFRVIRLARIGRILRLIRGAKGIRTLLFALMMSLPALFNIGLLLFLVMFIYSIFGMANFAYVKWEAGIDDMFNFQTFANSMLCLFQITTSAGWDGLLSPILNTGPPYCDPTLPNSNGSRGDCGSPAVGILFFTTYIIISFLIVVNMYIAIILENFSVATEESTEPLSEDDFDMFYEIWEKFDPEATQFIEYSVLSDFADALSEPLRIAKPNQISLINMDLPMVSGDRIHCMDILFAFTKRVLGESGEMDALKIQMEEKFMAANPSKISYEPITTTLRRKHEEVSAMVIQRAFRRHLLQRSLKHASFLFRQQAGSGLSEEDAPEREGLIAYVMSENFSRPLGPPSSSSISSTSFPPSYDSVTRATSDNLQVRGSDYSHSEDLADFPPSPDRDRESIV

On to `FC(F)(F)Oc1ccc(-c2ccc3onc(OCc4ncccn4)c3c2)cc1` [Example 1, 3-(pyrimidin-2-ylmethoxy)-5-(4-(trifluoromethoxy)phenyl)benzo[d]isoxazole], for which the inhibition at 10 µM in experiment [1] came out at 10.2%. Further, in experiment [2], the inhibition at 0.3 µM is 55% and the inhibition at 1 µM is 66.2%.

As for `Cc1cc(OC(F)(F)F)ccc1-c1ccc2onc(OCc3ncccn3)c2c1` [Example 3, 5-(2-methyl-4-(trifluoromethoxy)phenyl)-3-(pyrimidin-2-ylmethoxy)benzo[d]isoxazole], in experiment [1], the inhibition at 10 µM was below 5%. The compound also yielded an inhibition at 1 µM in experiment [2] of 52.6%.

Regarding `COc1cc(OC(F)(F)F)ccc1-c1ccc2onc(OCc3ncccn3)c2c1` [Example 4, 5-(2-methoxy-4-(trifluoromethoxy)phenyl)-3-(pyrimidin-2-ylmethoxy)benzo[d]isoxazole], the inhibition at 10 µM in experiment [1] is 13.9%. In experiment [2], this compound had an inhibition at 0.3 µM of 29.7% and an inhibition at 1 µM of 62.9%.

On to `Cc1ccnc(COc2noc3ccc(-c4ccc(OC(F)(F)F)cc4)cc23)n1` [Example 5, 3-((4-methylpyrimidin-2-yl)methoxy)-5-(4-(trifluoromethoxy)phenyl)benzo[d]isoxazole], for which the inhibition at 10 µM in experiment [1] was below 5%. In experiment [2], this compound came in with an inhibition at 0.3 µM of 38.2% and an inhibition at 1 µM of 54.5%.

As for `Fc1cc(C(F)(F)F)ccc1-c1ccc2onc(OCc3ncccn3)c2c1` [Example 6, 5-(2-fluoro-4-(trifluoromethyl)phenyl)-3-(pyrimidin-2-ylmethoxy)benzo[d]isoxazole], the inhibition at 10 µM in experiment [1] is below 5%. The inhibition at 1 µM in experiment [2] came to 51.1%.

`Cc1cc(-c2ccc3onc(OCc4ncccn4)c3c2)ccc1OC(F)(F)F` [Example 7, 5-(3-methyl-4-(trifluoromethoxy)phenyl)-3-(pyrimidin-2-ylmethoxy)benzo[d]isoxazole]: in experiment [1], the inhibition at 10 µM was below 5%. Besides, in experiment [2], the inhibition at 1 µM came out at 47.5%.

For `Fc1cc(-c2ccc3onc(OCc4ncccn4)c3c2)ccc1Cl` [Example 8, 5-(4-chloro-3-fluorophenyl)-3-(pyrimidin-2-ylmethoxy)benzo[d]isoxazole], the inhibition at 10 µM in experiment [1] was below 5%. In addition, the inhibition at 1 µM in experiment [2] was 52.6%.

For `FC(F)(F)c1ccc(-c2ccc3onc(OCc4ncccn4)c3c2)cc1` [Example 9, 3-(pyrimidin-2-ylmethoxy)-5-(4-(trifluoromethyl)phenyl)benzo[d]isoxazole], in experiment [1], the inhibition at 10 µM was below 5%. In experiment [2], this compound displayed an inhibition at 0.3 µM of 36.4% and an inhibition at 1 µM of 58.9%.

On to `FC(F)(F)Oc1cccc(-c2ccc3onc(OCc4ncccn4)c3c2)c1` [Example 10, 3-(pyrimidin-2-ylmethoxy)-5-(3-(trifluoromethoxy)phenyl)benzo[d]isoxazole], for which, in experiment [1], the inhibition at 10 µM was below 5%. This compound displayed an inhibition at 1 µM in experiment [2] of 41%.

Turning to `COc1cc2onc(OCc3ncccn3)c2cc1-c1ccc(Cl)c(F)c1` [Example 13, 5-(4-chloro-3-fluorophenyl)-6-methoxy-3-(pyrimidin-2-ylmethoxy)benzo[d]isoxazole], in experiment [1], the inhibition at 10 µM amounted to 5.6%. Besides, the inhibition at 1 µM in experiment [2] amounted to 35.1%.

`COc1cc2onc(OCc3ncccn3)c2cc1-c1ccc(OC(F)(F)F)c(C)c1` [Example 14, 6-methoxy-5-(3-methyl-4-(trifluoromethoxy)phenyl)-3-(pyrimidin-2-ylmethoxy)benzo[d]isoxazole]: in experiment [1], the inhibition at 10 µM was determined as 9.6%. Further, the inhibition at 1 µM in experiment [2] worked out at 46.7%.

For `COc1cc2onc(OCc3ncccn3)c2cc1-c1ccc(F)c(Cl)c1` [Example 15, 5-(3-chloro-4-fluorophenyl)-6-methoxy-3-(pyrimidin-2-ylmethoxy)benzo[d]isoxazole], in experiment [1], the inhibition at 10 µM was below 5%. Further, the inhibition at 1 µM in experiment [2] stood at 32.2%.

`Cc1cc(-c2ccc(OC(F)(F)F)cc2)cc2c(OCc3ncccn3)noc12` [Example 16, 7-methyl-3-(pyrimidin-2-ylmethoxy)-5-(4-(trifluoromethoxy)phenyl)benzo[d]isoxazole]: the inhibition at 10 µM in experiment [1] came out at 18%. Also, the inhibition at 1 µM in experiment [2] is 54.2%.

For `COc1cc(-c2ccc(OC(F)(F)F)cc2)cc2c(OCc3ncccn3)noc12` [Example 22, 7-methoxy-3-(pyrimidin-2-ylmethoxy)-5-(4-(trifluoromethoxy)phenyl)benzo[d]isoxazole], in experiment [1], the inhibition at 10 µM was 40%. Further, in experiment [2], the inhibition at 0.3 µM came out at 17.7% and the inhibition at 1 µM was determined as 55.9%.

Take `Cc1cc2onc(OCc3ncccn3)c2cc1-c1ccc(C(F)(F)F)cc1F` [Example 28, 5-(2-fluoro-4-(trifluoromethyl)phenyl)-6-methyl-3-(pyrimidin-2-ylmethoxy)benzo[d]isoxazole]: the inhibition at 10 µM in experiment [1] is below 5%. In addition, in experiment [2], the inhibition at 0.3 µM was 26.7% and the inhibition at 1 µM is 54.4%.

Turning to `FC(F)(F)Oc1ccc(-c2ccc3onc(OCC4CCO4)c3c2)cc1` (stereo not drawn) [Example 42, 3-(oxetan-2-ylmethoxy)-5-(4-(trifluoromethoxy)phenyl)benzo[d]isoxazole], in experiment [1], the inhibition at 10 µM is below 5%. In experiment [2], this compound displayed an inhibition at 0.3 µM of 17.5% and an inhibition at 1 µM of 57.3%.

For the compound `CCn1ccnc1COc1noc2ccc(-c3ccc(OC(F)(F)F)cc3)cc12` [Example 47, 3-((1-ethyl-1H-imidazol-2-yl)methoxy)-5-(4-(trifluoromethoxy)phenyl)benzo[d]isoxazole], in experiment [1], the inhibition at 10 µM came out at 31.5%. Further, in experiment [2], the inhibition at 0.3 µM was 20% and the inhibition at 1 µM came to 60.2%.

For `FC(F)(F)Oc1ccc(-c2ccc3onc(OCc4ncco4)c3c2)cc1` [Example 53, 3-(oxazol-2-ylmethoxy)-5-(4-(trifluoromethoxy)phenyl)benzo[d]isoxazole], in experiment [1], the inhibition at 10 µM is below 5%. In experiment [2], this compound registered an inhibition at 0.3 µM of 31.1% and an inhibition at 1 µM of 57%.
